This is an account of results in patent publication US8673966B2, “ALDH-2 inhibitors in the treatment of addiction” (Gilead Sciences, Inc., priority 2011, dated 2014).

The structures appear in SMILES notation. “And” between values parts separate entries of the source, which are not always exact repeats. Equal entries are not always repeated. “Also recorded” adds a separate entry of the source. Bounds are passed on as bounds.

Experiment [1] deals with human mitochondrial aldehyde dehydrogenase (ALDH-2) (Homo sapiens (Human), UniProt P05091). Particulars: U.S. Pat. Nos. 5,624,910 and 6,121,010; cited from earlier work.
Sequence of human mitochondrial aldehyde dehydrogenase (ALDH-2) (P05091 18-517): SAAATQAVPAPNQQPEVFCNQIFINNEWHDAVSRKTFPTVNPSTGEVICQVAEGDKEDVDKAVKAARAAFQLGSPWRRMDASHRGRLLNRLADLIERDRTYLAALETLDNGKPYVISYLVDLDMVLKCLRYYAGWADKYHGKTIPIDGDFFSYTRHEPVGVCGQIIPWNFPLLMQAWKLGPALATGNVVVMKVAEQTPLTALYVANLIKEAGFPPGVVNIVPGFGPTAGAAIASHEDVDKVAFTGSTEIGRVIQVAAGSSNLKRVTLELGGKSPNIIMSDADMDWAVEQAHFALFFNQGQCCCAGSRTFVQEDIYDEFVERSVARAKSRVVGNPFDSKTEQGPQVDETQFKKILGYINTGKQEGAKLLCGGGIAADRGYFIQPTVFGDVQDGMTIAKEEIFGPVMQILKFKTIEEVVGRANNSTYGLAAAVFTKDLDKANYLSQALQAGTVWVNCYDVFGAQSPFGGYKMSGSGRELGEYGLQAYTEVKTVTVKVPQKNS
A further experiment concerns the target hMAO-B (Homo sapiens (Human), UniProt P27338). Briefly: MAO-B assay (luminogenic MAO substrate). In kind it is biochemical. The conditions noted are these: microsome contained MAO-B, 16 uM substrate, 20 min pre-incubation; unit inferred. Here is the method:
(§1) MAO assays included luminogenic MAO substrate, reaction buffers, Luciferin Detection and the reconstitution buffer with esterase. Standard MAO reaction mixtures included microsome contained MAO-A (2 ug) or MAO-B (10 ug), 160 uM substrate for MAO-A or 16 uM substrate for MAO-B, MAO-A buffer (100 mM Hepes buffer, pH 7.5, 5% glycerol) or MAO-B buffer (100 mM Hepes, pH 7.5, 5% glycerol, 10% dimethyl sulfoxide) in a final volume of 30 ul. After 20 minutes of pre-incubation of the enzyme with compounds, the reaction was initiated by adding enzyme substrate and the reaction was allowed to proceed for 60 minutes. Reconstituted Luciferin Detection Reagent (30 ul) was then added is added to simultaneously stop the MAO reaction and convert the methyl ester derivative to luciferin and produce light. The amount of light produced is directly proportional to the activity of MAO. The mixtures were further incubated for 20 minutes and activity of the enzyme was determined using Perkin-Elmer Envision Reader.
(§2) Note: IC50 refers to the concentration of a compound that inhibits a reaction by 50%. In the case of competitive inhibition, IC50=2Ki when the substrate is present at the Km concentration, as per the relationship: Ki=IC50/[1+(substrate concentration/Km)].

A further experiment has as its target recombinant human ALDH2 (Homo sapiens (Human), UniProt P05091). The experiment in a line: ALDH2 assay (NADH formation). In kind it is biochemical. Particulars: 10 nM recombinant human ALDH2, 150 uM formaldehyde, 60 min pre-incubation; read-out: IC50 hALDH2. Here is the method: Standard ALDH2 reaction mixtures contained 150 uM formaldehyde, 2.5 mM NAD^+, 10 mM MgCl2 and 10 nM recombinant human ALDH2 in 50 mM Hepes buffer, pH 7.4, 0.01% Tween 20 in a final volume of 50 ul using 384-well plates. After 60 min of pre-incubation of compound with ALDH2 and formaldehyde, the reaction was started by adding NAD+ and the reaction mixture was allowed to proceed for 90 minutes. Activity of the enzyme was determined by monitoring NADH formation using Perkin-Elmer Envision Reader with excitation and emission wavelengths set at 340 and 460 nm, respectively.
as §2

Experiment [2] relates to cocaine dependency and relapse. Briefly: Operant cocaine self administration and reinstatement model in rats. The conditions noted are these: p.o.
The target in another experiment is hMAO-A (Homo sapiens (Human), UniProt P21397). Briefly: MAO-A assay (luminogenic MAO substrate). Particulars: microsome contained MAO-A, 160 uM substrate, 20 min pre-incubation; unit inferred. In kind it is biochemical. Here is the method: as §1, §2
Sequence of hMAO-A (P21397 whole entry): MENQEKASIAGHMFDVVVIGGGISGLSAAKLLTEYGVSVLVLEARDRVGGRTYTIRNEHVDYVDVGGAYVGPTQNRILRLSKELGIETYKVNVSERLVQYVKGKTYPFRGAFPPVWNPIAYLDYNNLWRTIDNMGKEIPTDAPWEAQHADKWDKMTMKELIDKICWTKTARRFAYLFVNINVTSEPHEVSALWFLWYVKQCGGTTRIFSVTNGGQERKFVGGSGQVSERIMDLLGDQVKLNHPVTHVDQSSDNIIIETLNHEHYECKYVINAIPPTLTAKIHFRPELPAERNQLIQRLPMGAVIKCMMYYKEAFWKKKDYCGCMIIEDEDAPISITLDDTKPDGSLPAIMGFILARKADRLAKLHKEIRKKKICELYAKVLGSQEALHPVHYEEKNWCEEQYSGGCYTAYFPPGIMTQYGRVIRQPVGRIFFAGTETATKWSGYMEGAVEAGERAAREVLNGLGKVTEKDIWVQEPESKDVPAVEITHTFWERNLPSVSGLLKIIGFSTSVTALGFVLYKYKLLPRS
For a further experiment, the system named is ethanol intake. Particulars: literature (Keung and Vallee); cited from earlier work.

Sequence of recombinant human ALDH2 (P05091 18-517): as the sequence (P05091 18-517) above
Sequence of hMAO-B (P27338 whole entry): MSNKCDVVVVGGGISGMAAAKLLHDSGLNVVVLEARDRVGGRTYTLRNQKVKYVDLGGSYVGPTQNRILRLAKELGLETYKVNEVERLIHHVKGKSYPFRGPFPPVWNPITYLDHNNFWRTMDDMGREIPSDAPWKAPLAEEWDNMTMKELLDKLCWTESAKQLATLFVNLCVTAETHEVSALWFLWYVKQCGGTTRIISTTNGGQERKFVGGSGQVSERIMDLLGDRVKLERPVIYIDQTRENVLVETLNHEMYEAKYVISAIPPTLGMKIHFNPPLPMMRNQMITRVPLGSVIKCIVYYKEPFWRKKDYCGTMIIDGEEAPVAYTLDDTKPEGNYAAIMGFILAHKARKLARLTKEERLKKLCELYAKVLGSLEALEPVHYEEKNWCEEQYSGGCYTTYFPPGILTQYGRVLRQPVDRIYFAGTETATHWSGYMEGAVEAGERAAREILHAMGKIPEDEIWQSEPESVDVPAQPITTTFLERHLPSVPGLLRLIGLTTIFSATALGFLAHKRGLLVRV

As to `O=c1c(-c2ccc(O)cc2)coc2cc(O[C@@H]3O[C@H](CO)[C@@H](O)[C@H](O)[C@H]3O)ccc12` [Daidzin, daidzin], the “inhibition of ALDH-2” value in experiment [1] is “potent and selective inhibitors”.

For orientation: IC50 means the concentration at which inhibition is half-maximal. With `CS(=O)(=O)Nc1ccc(-c2coc3cc(C#CC4CN(C(=O)C5CC5)C4)ccc3c2=O)cc1` [N-(4-(7-((1-(cyclopropanecarbonyl)azetidin-3-yl)ethynyl)-4-oxo-4H-chromen-3-yl)phenyl)methanesulfonamide], the values for the IC50 at hMAO-B, on recombinant human ALDH2 and on hMAO-A were above 130000 nM, 5 nM and above 130000 nM, respectively. For the same molecule, the “reduced cocaine dependency, as reduction in the average presses of the active lever” value is reported as 70% in experiment [2] (2.5 mg/Kg, 2 hour pre-treatment); 60% in experiment [2] (5.0 mg/Kg, 2 hour pre-treatment); 87% in experiment [2] (10.0 mg/kg, 1 hour pre-treatment).

Turning to `CS(=O)(=O)Nc1ccc(-c2coc3cc(C#CC4(N)CCCCC4)ccc3c2=O)cc1` [N-(4-(7-((1-aminocyclohexyl)ethynyl)-4-oxo-4H-chromen-3-yl)phenyl)methanesulfonamide], the figures for the half-inhibitory concentration (IC50) against hMAO-B, at recombinant human ALDH2 and against hMAO-A were above 130000 nM, 528 nM and above 130000 nM, respectively.

`CS(=O)(=O)Nc1ccc(-c2coc3cc(C#CC4(O)CCCCC4)ccc3c2=O)cc1` [N-(4-(7-((1-hydroxycyclohexyl)ethynyl)-4-oxo-4H-chromen-3-yl)phenyl)methanesulfonamide]: the figures for the half-maximal inhibitory concentration (IC50) on hMAO-B, at recombinant human ALDH2 and against hMAO-A were above 130000 nM, 1710 nM and above 130000 nM, respectively.

For the molecule `CS(=O)(=O)Nc1ccc(-c2coc3cc(C#CC4(O)CCCC4)ccc3c2=O)cc1` [N-(4-(7-((1-hydroxycyclopentyl)ethynyl)-4-oxo-4H-chromen-3-yl)phenyl)methanesulfonamide], the half-inhibitory concentration (IC50) against hMAO-B was above 130000 nM; on recombinant human ALDH2, 386 nM and 156 nM; at hMAO-A it was above 130000 nM.

For `CC(C)CN1CC(C#Cc2ccc3c(=O)c(-c4ccc(NS(C)(=O)=O)cc4)coc3c2)C1` [N-(4-(7-((1-isobutylazetidin-3-yl)ethynyl)-4-oxo-4H-chromen-3-yl)phenyl)methanesulfonamide], the figures for the IC50 at hMAO-B, at recombinant human ALDH2 and on hMAO-A were above 130000 nM, 109 nM and above 130000 nM, respectively.

As for `CC(C)n1cncc1C#Cc1ccc2c(=O)c(-c3ccc(NS(C)(=O)=O)cc3)coc2c1` [N-(4-(7-((1-isopropyl-1H-imidazol-5-yl)ethynyl)-4-oxo-4H-chromen-3-yl)phenyl)methanesulfonamide], the half-maximal inhibitory concentration (IC50) against hMAO-B is above 130000 nM; on recombinant human ALDH2 it was 7 nM; on hMAO-A, above 130000 nM.

Consider `Cn1cnc(C#Cc2ccc3c(=O)c(-c4ccc(NS(C)(=O)=O)cc4)coc3c2)c1` [N-(4-(7-((1-methyl-1H-imidazol-4-yl)ethynyl)-4-oxo-4H-chromen-3-yl)phenyl)methanesulfonamide], for which the concentration for half-maximal inhibition (IC50) against hMAO-B was above 130000 nM; on recombinant human ALDH2 it was 95 nM; at hMAO-A, above 86500 nM.

Turning to `Cn1cncc1C#Cc1ccc2c(=O)c(-c3ccc(NS(C)(=O)=O)cc3)coc2c1` [N-(4-(7-((1-methyl-1H-imidazol-5-yl)ethynyl)-4-oxo-4H-chromen-3-yl)phenyl)methanesulfonamide], the half-inhibitory concentration (IC50) at hMAO-B is 365 nM; at recombinant human ALDH2 it was below 4.9 nM; against hMAO-A, above 130000 nM.

Regarding `CS(=O)(=O)Nc1ccc(-c2coc3cc(C#CC4CNC4)ccc3c2=O)cc1` [N-(4-(7-(azetidin-3-ylethynyl)-4-oxo-4H-chromen-3-yl)phenyl)methanesulfonamide], the IC50 is above 94400 nM against hMAO-B, 266 nM at recombinant human ALDH2 and above 130000 nM on hMAO-A.

Regarding `CS(=O)(=O)Nc1ccc(-c2coc3cc(C#CC4CC4)ccc3c2=O)cc1` [N-(4-(7-(cyclopropylethynyl)-4-oxo-4H-chromen-3-yl)phenyl)methanesulfonamide], the 50% inhibitory concentration (IC50) was above 13000 nM against hMAO-B, 57.7 nM on recombinant human ALDH2 and above 13000 nM at hMAO-A.

Regarding `CS(=O)(=O)Nc1ccc(-c2coc3cc(C#CC4CN(C(=O)OC5CCCC5)C4)ccc3c2=O)cc1` [cyclopentyl-3-((3-(4-(methylsulfonamido)phenyl)-4-oxo-4H-chromen-7-yl)ethynyl)azetidine-1-carboxylate], the figures for the half-inhibitory concentration (IC50) against hMAO-B, at recombinant human ALDH2 and against hMAO-A were above 130000 nM, 9 nM and above 130000 nM, respectively.

On to `O=c1c(-c2ccc(O)cc2)coc2cc(O)ccc12` [daidzein], for which the suppressing ethanol intake result in the experiment on ethanol intake is reported as “effective in suppressing ethanol intake; also recorded: effective in suppressing ethanol uptake”.

With `CC(C)(C)OC(=O)NC1(C(=O)N2CC(C#Cc3ccc4c(=O)c(-c5ccc(NS(C)(=O)=O)cc5)coc4c3)C2)CCC1` [tert-butyl 1-(3-((3-(4-(methylsulfonamido)-phenyl)-4-oxo-4H-chromen-7-yl)ethynyl)azetidine-1-carbonyl)-cyclobutylcarbamate], the IC50 on hMAO-B was above 130000 nM; at recombinant human ALDH2, 6 nM; on hMAO-A, above 130000 nM.

Consider `CC(C)(C)OC(=O)NC1(C(=O)N2CC(C#Cc3ccc4c(=O)c(-c5ccc(NS(C)(=O)=O)cc5)coc4c3)C2)CC1` [tert-butyl 1-(3-((3-(4-(methylsulfonamido)phenyl)-4-oxo-4H-chromen-7-yl)ethynyl)azetidine-1-carbonyl)cyclopropylcarbamate], for which the results for the half-maximal inhibitory concentration (IC50) at hMAO-B, at recombinant human ALDH2 and on hMAO-A were above 130000 nM, 5 nM and 110000 nM, respectively.

Regarding `CC(C)(C)OC(=O)N1CC(C#Cc2ccc3c(=O)c(-c4ccc(NS(C)(=O)=O)cc4)coc3c2)C1` [tert-butyl 3-((3-(4-(methylsulfonamido)phenyl)-4-oxo-4H-chromen-7-yl)ethynyl)azetidine-1-carboxylate], the half-maximal inhibitory concentration (IC50) was above 130000 nM at hMAO-B, 9 nM on recombinant human ALDH2 and above 130000 nM on hMAO-A.

As for `CC(C)(C)OC(=O)N1CCC(C#Cc2ccc3c(=O)c(-c4ccc(NS(C)(=O)=O)cc4)coc3c2)CC1` [tert-butyl 4-((3-(4-(methylsulfonamido)phenyl)-4-oxo-4H-chromen-7-yl)ethynyl)piperidine-1-carboxylate], the figures for the IC50 on hMAO-B, on recombinant human ALDH2 and against hMAO-A were above 130000 nM, 86 nM and above 130000 nM, respectively.

Consider `CN(C(=O)OC(C)(C)C)C1(C(=O)N2CC(C#Cc3ccc4c(=O)c(-c5ccc(NS(C)(=O)=O)cc5)coc4c3)C2)CC1` [tert-butyl (1-(3-((3-(4-(methylsulfonamido)-phenyl)-4-oxo-4H-chromen-7-yl)ethynyl)azetidine-1-carbonyl)cyclopropyl)-methylcarbamate], for which the results for the IC50 at hMAO-B, on recombinant human ALDH2 and against hMAO-A were above 130000 nM, 2.3 nM and above 130000 nM, respectively.
